US20030215397A1, “Method of treatment of skin diseases related to microbial antigens in the skin” (priority 2002, published 2003)

Experiments:
psoriatic lesion = assay: Topical treatment of a psoriatic lesion in a patient, appearance of the lesion; format: in vivo, human; conditions: person with severe psoriasis; pump spray with 40% by weight isopropyl myristate in alcohol carrier, on one lesion twice a day for two weeks
Experimental: A person, suffering from severe psoriasis came for treatment. Their psoriasis had become severe at a time about 20 years earlier when they had recurring sore throats and tonsilitis. Their sore throats had ceased, but their psoriasis persisted. A blood sample was taken to measure […] antibody level to Dnase-B, a streptococcal exoenzyme; It was determined that they were a streptococcal carrier. A 4 mm punch biopsy was taken at the same time from a psoriatic plaque on their posterior thigh. The biopsy was first exposed to an antibody to Streptozyme®, and stained using the LSAB test.
The patient was provided with a pump spray bottle containing 40% by weight of isopropyl myristate in an alcohol carrier, and instructed to spray the liquid on one particular lesion twice a day for two weeks. […] That site was biopsied and given the LSAB test, as before. The stain was negative, indicating the cleansing of the streptococcal antigen from the skin that had been treated with the 40% isopropyl myristate spray, and it was accompanied by a clearing of the lesion.
The composition in each case is liberally applied and the patient otherwise is permitted to carry out the usual hygiene, showering or bathing. […]

[1] = tested on: streptococcal antigen (Dnase-B) in the skin; assay: LSAB stain (antibody to Streptozyme) of a biopsy from the treated psoriatic lesion site; format: in vivo, streptococci; conditions: person with severe psoriasis; pump spray with 40% by weight isopropyl myristate in alcohol carrier, on one lesion twice a day for two weeks; stain positive before treatment
Experimental: Anti-body levels of many such patients, to streptococcal exoenzymes, deoxyribonuclease B, hyaluronidase, streptolysin O, and Streptozyme (a commercial product made from streptococci and containing Dnase-B as one of its constituents., a registered trademark of Carter-Wallace, Inc. and available from Wampole Labs, of Cranbury, N.J.), when measured will be found to be elevated prior to the treatment in accordance with this invention. The presence of these antigens are tested for by using a primary rabbit polyclonal antibody to, e.g., Streptozyme® with a linked streptavidin biotin alkaline phosphatase (“LSAB”) amplification stain, available from Dako, of Carpinteria, Calif. A prominent red stain on the biopsied skin indicates the presence of the antigens.
A person, suffering from severe psoriasis came for treatment. Their psoriasis had become severe at a time about 20 years earlier when they had recurring sore throats and tonsilitis. Their sore throats had ceased, but their psoriasis persisted. A blood sample was taken to measure […] antibody level to Dnase-B, a streptococcal exoenzyme; It was determined that they were a streptococcal carrier. A 4 mm punch biopsy was taken at the same time from a psoriatic plaque on their posterior thigh. The biopsy was first exposed to an antibody to Streptozyme®, and stained using the LSAB test. […]

## CCCCCCCCCCCCCC(=O)OC(C)C [isopropyl myristate]
Psoriatic lesion
  clearing of the sprayed lesion: substantially clear of the disease
[1]
  LSAB stain for streptococcal antigen in the biopsied treated site: negative
